“And” between values parts separate entries of the source, which are not always exact repeats. Equal entries are not always repeated. “Also recorded” adds a separate entry of the source.
Legend:
[1] = Biliary excretion after intravenous administration in bile duct-cannulated rats; assay type: in vivo, Wistar ST rats
Experimental: (§1) SPF Wistar ST rats (6 weeks of age, male, 180 ± 20 g of body weight) were purchased from Japan SLC Inc. (Hamamatsu, Japan). The rats were housed in an air-conditioned room at 22 ± 2°C under cycles of 12 hours dark and 12 hours light and given free access to a commercial diet and water for a week. The rats were then fasted for over 16 hours before the experiments. The present study was approved by the Animal Care and Use Committee at Kagawa University, and the rat treatment conformed to the Rules of Animal Experiments at Kagawa University. After fasting, the rats were cannulated with a polyethylene tube (PE-50; 0.58 mm I.D., 0.965 mm O.D.) into the jugular vein, portal vein, or bile duct under anesthesia with isoflurane inhalation using a WP-SAA01 (LMS Co., Ltd., Tokyo, Japan). A small hole was made in the vein or duct using pointed scissors and cannulated with the polyethylene tube. After inserting the tube, it was fixed at the edge of the vein or duct. The jugular vein and portal vein cannulas penetrated under the skin and were then tied at the back of the rats, and the bile duct cannula was tied at the abdomen of the rats. Bile duct-cannulated rats were then restrained in a Bollman cage (Natsume Seisakusho Co., Ltd., Tokyo, Japan). Before further experiments, the rats were allowed to recover from anesthesia. 3,4-[…] (300 mg/kg body weight; 936.51 μmol/kg) dissolved in 50% polyethylene glycol aqueous solution was administered orally via a stomach tube to the portal vein cannulated rats. Blood samples (450 μL) were then collected using a heparinized syringe attached to the cannula before administration and 5, 15, 30, 60, 120, and 240 min after administration. Urine was also collected before administration and 0 to 2 h and 2 to 4 h after administration. For intravenous administration, 3,4-[…] (10 mg/kg; 31.22 μmol/kg) was injected into the jugular vein, and blood (450 μL) was collected using a heparinized syringe before administration and 5, 15, 30, 60, 120, and 240 min after administration via the jugular vein cannula. The blood (450 μL) collected was immediately cooled on ice and centrifuged at 15,000 rpm for 5 min at 4°C to obtain over 200 μL plasma. Urine was also collected before administration and 0 to 2 h and 2 to 4 h after administration. Bile was collected via the bile duct cannula before administration and 0 to 2 h and 2 to 4 h after intravenous administration. The collected plasma, urine, and bile were immediately stored in an ice box until further analyses. HT (oral administration: 100 mg/kg; 648.66 μmol/kg, intravenous administration: 10 mg/kg; 64.87 μmol/kg) and Ole (oral administration: 300 mg/kg; 555.02 μmol/kg, intravenous administration: 10 mg/kg; 18.50 μmol/kg) were investigated using the same method as described above. Metabolites were deconjugated by using β-glucuronidase (500 U) and sulfatase (50 U) in 50 μL 625 mM MOPS (pH 6.8), which was added to 200 μL of plasma, urine, or bile. The mixture was incubated for 45 min at 37°C and subjected to extraction using QuEChERS [33]. […] Shimadzu, Kyoto, Japan) equipped with a Shim-pack XR-ODS column (3.0 mm I.D. × 100 mm; Shimadzu, Kyoto, Japan) at 40°C with a mobile phase of 0.5% TFA-1% acetonitrile aqueous solution (A) and 0.5% TFA-75% acetonitrile aqueous solution (B). The elution conditions are described as follows: isocratic elution of 0% B was maintained for 4.0 min; linear gradient 0 to 4% B, 4.0-4.5 min; linear gradient 4.0-16.0% B, 4.5-16.0 min; linear gradient 16.0-100% B, 16.0-25.0 min; isocratic elution of 100% B, 25.0-26.0 min; and linear gradient 100 to 0% B, 26.0-26.1 min, with a flow rate of 0.5 mL/min. Injection volume was 50 μL. All eluted peaks were detected at 279 nm with a diode array detector (SPD-M20A; Shimadzu, Kyoto, Japan).

[2] = Urinary excretion after oral administration; assay type: in vivo, Wistar ST rats
Experimental: as §1, with “University.” for “University. After fasting, the rats were cannulated with a polyethylene tube (PE-50; 0.58 mm I.D., 0.965 mm O.D.) into the jugular vein, portal vein, or bile duct under anesthesia with isoflurane inhalation using a WP-SAA01 (LMS Co., Ltd., Tokyo, Japan). A small hole was made in the vein or duct using pointed scissors and cannulated with the polyethylene tube. After inserting the tube, it was fixed at the edge of the vein or duct. The jugular vein and portal vein cannulas penetrated under the skin and were then tied at the back of the rats, and the bile duct cannula was tied at the abdomen of the rats. Bile duct-cannulated rats were then restrained in a Bollman cage (Natsume Seisakusho Co., Ltd., Tokyo, Japan). Before further experiments, the rats were allowed to recover from anesthesia.”

[3] = after oral administration, within 240 min

Compound | HT in bile [1] | HT in urine [2, 3] | Ole in bile [1] | Ole in urine ([2]; after oral administration) | Detection of parent 3,4-DHPEA-EDA in bile [1] | HVA in bile [1] | HVAOH in bile [1] | Detection of 3,4-DHPEA-EDA in urine ([2]; after oral administration) | HVA in urine [2, 3] | HVAOH in urine [2, 3] | total excretion ratio including metabolites (3,4-DHPEA-EDA : HT : Ole) ([2]; urine after oral administration, Ole = 1) | Total metabolites (including intact compound) excreted in the urine ([2]; within 240 min after oral administration)
OCCc1ccc(O)c(O)c1 [Hydroxytyrosol, 2-(3,4-dihydroxyphenyl) ethyl alcohol, reference compound] | 0.079 % of dose | 1.14 % of dose | – | – | – | – | – | – | – | – | – | –
C/C=C1/[C@H](O[C@@H]2O[C@H](CO)[C@@H](O)[C@H](O)[C@H]2O)OC=C(C(=O)OC)[C@H]1CC(=O)OCCc1ccc(O)c(O)c1 [Oleuropein, reference compound] | – | – | 3.22 % of dose | 0.07 % of dose | – | – | – | – | – | – | – | –
CC=C(C=O)C(CC=O)CC(=O)OCCc1ccc(O)c(O)c1 (centres unmarked) [3,4-DHPEA-EDA, 3,4-dihydroxyphenylethyl elenolate dialdehydic form] | 0.174 % of dose and 0.17 % of dose | 0.51 % of dose | – | – | not observed | 0.048 % of dose and 0.05 % of dose | 0.255 % of dose and 0.26 % of dose | not observed; also recorded: not detected | 0.38 % of dose and 0.39 % of dose | not detected | 12.9 | 0.9%
